From PMC4076210, “Discovery of Novel AKT Inhibitors with Enhanced Anti-Tumor Effects in Combination with the MEK Inhibitor” (PLoS ONE, 2014)
Read-outs that look alike come from different tables or passages of the source.

Experiments:
[1] = biological target: T1, IRAK1(h) (Homo sapiens, UniProt P51617); assay: Kinase panel; type: biochemical
T1 construct: purchased Millipore KinaseProfiler

[2] = biological target: T2, GRK6(h) (Homo sapiens, UniProt P43250); assay: Kinase panel; type: biochemical
T2 construct: purchased Millipore KinaseProfiler
T2 sequence (P43250 whole entry): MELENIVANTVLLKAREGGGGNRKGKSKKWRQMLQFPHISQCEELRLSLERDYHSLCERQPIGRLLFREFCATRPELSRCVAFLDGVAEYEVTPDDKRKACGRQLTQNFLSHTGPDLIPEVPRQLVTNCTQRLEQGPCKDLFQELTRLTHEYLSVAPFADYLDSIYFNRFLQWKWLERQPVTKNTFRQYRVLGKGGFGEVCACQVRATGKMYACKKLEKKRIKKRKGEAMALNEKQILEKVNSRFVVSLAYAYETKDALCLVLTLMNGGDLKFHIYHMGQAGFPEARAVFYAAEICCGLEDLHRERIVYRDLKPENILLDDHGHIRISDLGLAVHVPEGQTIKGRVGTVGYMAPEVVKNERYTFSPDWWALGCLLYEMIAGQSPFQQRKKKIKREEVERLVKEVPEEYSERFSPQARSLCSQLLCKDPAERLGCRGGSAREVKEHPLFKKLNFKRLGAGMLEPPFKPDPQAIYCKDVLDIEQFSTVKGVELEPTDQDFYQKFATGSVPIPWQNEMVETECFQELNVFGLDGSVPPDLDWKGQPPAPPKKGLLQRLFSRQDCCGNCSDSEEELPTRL

[3] = biological target: T3, SAPK2b(h) (Homo sapiens, UniProt Q15759); assay: Kinase panel; type: biochemical
T3 construct: purchased Millipore KinaseProfiler
T3 sequence (Q15759 whole entry): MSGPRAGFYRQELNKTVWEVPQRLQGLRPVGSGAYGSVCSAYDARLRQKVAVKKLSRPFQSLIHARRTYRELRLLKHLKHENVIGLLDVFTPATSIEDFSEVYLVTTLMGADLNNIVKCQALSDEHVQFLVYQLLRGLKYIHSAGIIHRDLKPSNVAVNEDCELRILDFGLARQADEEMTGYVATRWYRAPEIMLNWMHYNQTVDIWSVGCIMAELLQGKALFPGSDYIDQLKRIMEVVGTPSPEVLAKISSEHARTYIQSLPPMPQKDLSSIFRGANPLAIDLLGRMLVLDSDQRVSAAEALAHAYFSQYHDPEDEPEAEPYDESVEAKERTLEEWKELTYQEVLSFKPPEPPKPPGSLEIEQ

[4] = biological target: T4, MST1(h) (Homo sapiens, UniProt Q13043); assay: Kinase panel; type: biochemical
T4 construct: purchased Millipore KinaseProfiler
T4 sequence (Q13043 1-487): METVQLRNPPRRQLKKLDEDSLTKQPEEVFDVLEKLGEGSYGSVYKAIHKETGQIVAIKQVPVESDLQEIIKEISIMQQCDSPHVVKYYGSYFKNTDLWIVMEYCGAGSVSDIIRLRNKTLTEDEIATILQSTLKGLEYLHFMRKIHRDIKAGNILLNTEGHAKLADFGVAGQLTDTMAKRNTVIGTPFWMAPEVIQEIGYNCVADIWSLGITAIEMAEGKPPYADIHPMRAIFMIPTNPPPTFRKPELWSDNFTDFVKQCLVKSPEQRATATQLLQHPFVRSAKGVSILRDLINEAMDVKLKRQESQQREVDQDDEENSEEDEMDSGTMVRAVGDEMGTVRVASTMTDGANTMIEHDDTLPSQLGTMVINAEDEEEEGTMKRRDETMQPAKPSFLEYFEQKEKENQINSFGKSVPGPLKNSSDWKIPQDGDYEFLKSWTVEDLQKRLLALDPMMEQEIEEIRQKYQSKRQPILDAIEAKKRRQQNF

[5] = biological target: T5, MRCKα(h) (Homo sapiens, UniProt Q5VT25); assay: Kinase panel; type: biochemical
T5 construct: purchased Millipore KinaseProfiler
T5 sequence (Q5VT25 whole entry): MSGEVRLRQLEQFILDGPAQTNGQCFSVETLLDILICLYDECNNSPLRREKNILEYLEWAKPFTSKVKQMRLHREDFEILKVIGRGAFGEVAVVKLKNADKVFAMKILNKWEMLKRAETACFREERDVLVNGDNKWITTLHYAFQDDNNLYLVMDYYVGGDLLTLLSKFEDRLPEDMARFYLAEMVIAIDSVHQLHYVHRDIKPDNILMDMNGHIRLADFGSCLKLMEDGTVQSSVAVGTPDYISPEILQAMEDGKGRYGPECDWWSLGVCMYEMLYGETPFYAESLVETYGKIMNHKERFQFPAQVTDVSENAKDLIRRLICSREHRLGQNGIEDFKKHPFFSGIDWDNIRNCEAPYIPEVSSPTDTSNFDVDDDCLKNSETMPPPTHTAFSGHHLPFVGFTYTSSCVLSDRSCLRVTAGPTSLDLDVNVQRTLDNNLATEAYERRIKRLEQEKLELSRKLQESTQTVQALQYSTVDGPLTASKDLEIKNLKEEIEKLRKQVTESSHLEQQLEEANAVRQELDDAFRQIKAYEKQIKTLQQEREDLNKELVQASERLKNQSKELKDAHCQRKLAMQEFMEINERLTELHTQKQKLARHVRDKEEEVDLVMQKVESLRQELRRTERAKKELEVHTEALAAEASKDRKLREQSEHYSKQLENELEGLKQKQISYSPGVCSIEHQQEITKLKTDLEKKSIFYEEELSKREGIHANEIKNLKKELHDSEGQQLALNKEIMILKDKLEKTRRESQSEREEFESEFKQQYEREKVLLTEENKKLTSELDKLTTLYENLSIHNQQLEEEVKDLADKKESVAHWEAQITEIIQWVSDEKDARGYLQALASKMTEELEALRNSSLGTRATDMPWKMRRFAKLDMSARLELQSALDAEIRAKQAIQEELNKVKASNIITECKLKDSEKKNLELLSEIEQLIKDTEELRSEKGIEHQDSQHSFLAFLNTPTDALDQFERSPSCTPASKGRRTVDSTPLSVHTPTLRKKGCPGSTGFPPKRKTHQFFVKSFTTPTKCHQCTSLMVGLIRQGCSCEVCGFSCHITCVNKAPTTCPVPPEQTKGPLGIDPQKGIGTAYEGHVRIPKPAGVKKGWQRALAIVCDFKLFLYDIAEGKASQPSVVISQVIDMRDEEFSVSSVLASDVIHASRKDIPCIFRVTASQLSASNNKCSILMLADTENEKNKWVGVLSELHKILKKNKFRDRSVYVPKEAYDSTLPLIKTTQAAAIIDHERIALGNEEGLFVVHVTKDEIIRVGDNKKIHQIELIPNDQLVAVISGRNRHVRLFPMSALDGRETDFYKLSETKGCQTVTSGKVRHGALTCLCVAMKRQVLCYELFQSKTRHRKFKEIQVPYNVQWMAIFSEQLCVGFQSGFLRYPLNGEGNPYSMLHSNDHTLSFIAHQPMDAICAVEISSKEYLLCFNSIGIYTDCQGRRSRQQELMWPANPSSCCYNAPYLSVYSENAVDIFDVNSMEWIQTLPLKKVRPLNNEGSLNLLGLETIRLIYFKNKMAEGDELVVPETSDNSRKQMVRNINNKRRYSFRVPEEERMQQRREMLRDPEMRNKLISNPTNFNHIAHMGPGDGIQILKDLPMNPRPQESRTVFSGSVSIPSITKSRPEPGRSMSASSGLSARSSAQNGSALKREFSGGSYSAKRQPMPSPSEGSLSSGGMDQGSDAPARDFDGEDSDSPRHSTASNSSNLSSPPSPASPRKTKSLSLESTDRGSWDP

[6] = biological target: PKG1β (Homo sapiens, UniProt Q13976); assay: Kinase IC50 assay; type: biochemical
[7] = biological target: T6, LIMK1(h) (Homo sapiens, UniProt P53667); assay: Kinase panel; type: biochemical
T6 construct: purchased Millipore KinaseProfiler

[8] = biological target: T7, PAK2(h) (Homo sapiens, UniProt Q13177); assay: Kinase panel; type: biochemical
T7 construct: purchased Millipore KinaseProfiler

[9] = biological target: T8, PDGFRα(V561D)(h) (Homo sapiens, UniProt P16234, V561D); assay: Kinase panel; type: biochemical
T8 construct: purchased Millipore KinaseProfiler
T8 sequence (P16234 24-1089 V561D): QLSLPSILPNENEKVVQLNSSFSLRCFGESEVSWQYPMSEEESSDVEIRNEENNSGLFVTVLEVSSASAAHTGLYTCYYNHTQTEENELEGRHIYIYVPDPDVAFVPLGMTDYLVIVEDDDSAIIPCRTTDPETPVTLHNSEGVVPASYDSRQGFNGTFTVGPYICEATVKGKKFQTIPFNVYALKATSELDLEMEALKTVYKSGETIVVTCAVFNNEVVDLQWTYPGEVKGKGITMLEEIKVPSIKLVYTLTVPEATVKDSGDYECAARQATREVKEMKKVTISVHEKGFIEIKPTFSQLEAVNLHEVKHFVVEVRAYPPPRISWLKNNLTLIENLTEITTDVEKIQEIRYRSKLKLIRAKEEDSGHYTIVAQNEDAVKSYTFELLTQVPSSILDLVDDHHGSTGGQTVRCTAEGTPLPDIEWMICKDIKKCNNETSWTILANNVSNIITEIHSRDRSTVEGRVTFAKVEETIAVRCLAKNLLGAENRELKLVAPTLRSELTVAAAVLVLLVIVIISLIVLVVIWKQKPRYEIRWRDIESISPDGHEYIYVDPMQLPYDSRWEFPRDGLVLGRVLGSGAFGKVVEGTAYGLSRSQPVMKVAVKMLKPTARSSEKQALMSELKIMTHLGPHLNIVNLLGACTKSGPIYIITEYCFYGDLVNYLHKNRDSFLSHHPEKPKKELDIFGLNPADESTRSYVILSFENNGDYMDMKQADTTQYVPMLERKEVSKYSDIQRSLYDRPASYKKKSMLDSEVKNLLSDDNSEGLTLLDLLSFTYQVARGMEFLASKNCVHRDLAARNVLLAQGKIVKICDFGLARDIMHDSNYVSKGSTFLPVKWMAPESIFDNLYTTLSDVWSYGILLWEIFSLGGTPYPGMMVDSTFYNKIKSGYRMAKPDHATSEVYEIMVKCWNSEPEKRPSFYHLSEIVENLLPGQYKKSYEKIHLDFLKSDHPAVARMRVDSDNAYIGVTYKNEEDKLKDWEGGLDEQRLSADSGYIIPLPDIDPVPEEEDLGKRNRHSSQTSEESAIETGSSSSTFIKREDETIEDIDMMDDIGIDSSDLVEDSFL

[10] = biological target: T9, CaMKIIβ(h) (Homo sapiens, UniProt Q13554); assay: Kinase panel; type: biochemical
T9 construct: purchased Millipore KinaseProfiler

[11] = biological target: T10, TrkB(h) (Homo sapiens, UniProt Q16620); assay: Kinase panel; type: biochemical
T10 construct: purchased Millipore KinaseProfiler

[12] = biological target: T11, IGF-1R(h) (Homo sapiens, UniProt P08069); assay: Kinase panel; type: biochemical
T11 construct: purchased Millipore KinaseProfiler
T11 sequence (P08069 31-1367): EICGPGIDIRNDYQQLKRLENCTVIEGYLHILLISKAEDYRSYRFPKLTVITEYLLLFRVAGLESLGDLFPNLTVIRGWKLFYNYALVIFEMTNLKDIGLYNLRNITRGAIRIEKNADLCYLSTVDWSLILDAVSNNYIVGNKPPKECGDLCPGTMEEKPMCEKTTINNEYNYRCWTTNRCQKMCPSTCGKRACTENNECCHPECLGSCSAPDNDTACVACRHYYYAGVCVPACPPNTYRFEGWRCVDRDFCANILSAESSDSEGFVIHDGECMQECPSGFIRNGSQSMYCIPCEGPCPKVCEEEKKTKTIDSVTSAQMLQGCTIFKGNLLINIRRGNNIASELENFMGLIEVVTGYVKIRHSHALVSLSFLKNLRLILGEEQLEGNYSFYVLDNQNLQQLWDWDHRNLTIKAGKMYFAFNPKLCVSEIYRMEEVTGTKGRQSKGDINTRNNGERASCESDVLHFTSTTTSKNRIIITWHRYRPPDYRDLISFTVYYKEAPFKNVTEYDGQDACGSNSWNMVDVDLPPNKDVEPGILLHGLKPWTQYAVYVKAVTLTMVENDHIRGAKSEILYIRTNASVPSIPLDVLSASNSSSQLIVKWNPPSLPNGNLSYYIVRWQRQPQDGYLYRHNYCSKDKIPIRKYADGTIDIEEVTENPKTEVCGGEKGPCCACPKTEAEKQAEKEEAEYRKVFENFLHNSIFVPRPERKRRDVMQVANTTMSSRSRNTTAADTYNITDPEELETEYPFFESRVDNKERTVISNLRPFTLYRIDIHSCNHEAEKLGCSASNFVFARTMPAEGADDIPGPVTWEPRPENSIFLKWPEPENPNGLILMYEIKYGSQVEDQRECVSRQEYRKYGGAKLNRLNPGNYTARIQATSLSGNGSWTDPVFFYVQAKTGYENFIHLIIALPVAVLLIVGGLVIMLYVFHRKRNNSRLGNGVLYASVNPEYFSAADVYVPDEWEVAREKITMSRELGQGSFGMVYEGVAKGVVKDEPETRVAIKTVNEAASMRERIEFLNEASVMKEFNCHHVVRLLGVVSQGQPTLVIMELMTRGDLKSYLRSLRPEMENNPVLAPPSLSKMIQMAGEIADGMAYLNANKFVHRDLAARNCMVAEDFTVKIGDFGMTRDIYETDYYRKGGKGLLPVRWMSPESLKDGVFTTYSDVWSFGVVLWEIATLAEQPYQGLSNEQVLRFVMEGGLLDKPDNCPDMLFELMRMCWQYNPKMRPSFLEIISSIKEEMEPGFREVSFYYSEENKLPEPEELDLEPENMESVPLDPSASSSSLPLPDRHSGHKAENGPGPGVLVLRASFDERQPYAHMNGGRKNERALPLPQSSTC

[13] = biological target: PKCη (Homo sapiens, UniProt P24723); assay: Kinase IC50 assay; type: biochemical
[14] = biological target: T12, HIPK1(h) (Homo sapiens, UniProt Q86Z02); assay: Kinase panel; type: biochemical
T12 construct: purchased Millipore KinaseProfiler

[15] = biological target: T13, c-RAF(h) (Homo sapiens, UniProt P04049); assay: Kinase panel; type: biochemical
T13 construct: purchased Millipore KinaseProfiler

[16] = biological target: T14, TLK2(h) (Homo sapiens, UniProt Q86UE8); assay: Kinase panel; type: biochemical
T14 construct: purchased Millipore KinaseProfiler

[17] = system: phospho-PRAS40 in BT474 tumor xenografts; assay: In vivo dose response pharmacodynamic assay (phospho-PRAS40 ELISA); set-up: species or system mouse; conditions: 2 h post last dose
Description: Protein lysates were analyzed by phospho-PRAS40 ELISA according to the methods described above. Concentration of the test compounds in the tissue and blood was analyzed using protein precipitation with acetonitrile, followed by HPLC/MS/MS analysis using positive ion atmospheric pressure chemical ionization or Turbo ionspray ionization (API 4000 or API 5000, Applied Biosystems). The lower level of detection of compound was 10 ng/mL and the assays were linear over a 100- to a 1000-fold drug concentration range.

[18] = biological target: T15, PKCζ(h) (Homo sapiens, UniProt Q05513); assay: Kinase panel; type: biochemical
T15 construct: purchased Millipore KinaseProfiler
T15 sequence (Q05513 1-592): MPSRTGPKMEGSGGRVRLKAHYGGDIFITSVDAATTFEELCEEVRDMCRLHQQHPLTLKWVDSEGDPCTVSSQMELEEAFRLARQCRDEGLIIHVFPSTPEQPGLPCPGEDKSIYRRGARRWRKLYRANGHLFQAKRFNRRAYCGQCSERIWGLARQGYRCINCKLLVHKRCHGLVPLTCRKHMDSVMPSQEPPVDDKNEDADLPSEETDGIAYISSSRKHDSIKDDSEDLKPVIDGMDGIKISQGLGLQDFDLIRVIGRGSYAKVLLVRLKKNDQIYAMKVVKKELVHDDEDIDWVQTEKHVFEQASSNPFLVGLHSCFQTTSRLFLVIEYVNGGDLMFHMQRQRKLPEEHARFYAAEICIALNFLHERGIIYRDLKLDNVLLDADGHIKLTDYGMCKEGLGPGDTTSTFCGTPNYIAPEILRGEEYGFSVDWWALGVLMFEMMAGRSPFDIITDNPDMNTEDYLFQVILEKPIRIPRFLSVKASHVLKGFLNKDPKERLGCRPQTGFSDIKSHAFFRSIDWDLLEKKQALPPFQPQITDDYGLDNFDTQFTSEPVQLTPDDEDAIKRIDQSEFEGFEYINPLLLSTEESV

[19] = biological target: T16, Flt4(h) (Homo sapiens, UniProt P35916); assay: Kinase panel; type: biochemical
T16 construct: purchased Millipore KinaseProfiler

[20] = biological target: T17, SRPK1(h) (Homo sapiens, UniProt Q96SB4); assay: Kinase panel; type: biochemical
T17 construct: purchased Millipore KinaseProfiler

[21] = biological target: T18, CDK1/cyclinB(h) (Homo sapiens, UniProt P06493); assay: Kinase panel; type: biochemical
T18 construct: purchased Millipore KinaseProfiler

Cn1ncc(Cl)c1-c1cc(C(=O)N[C@H](CN)Cc2ccc(F)c(F)c2)oc1Cl [GSK2141795]
inhibition at 0.5 µM ([1]; 0.5 µM, read-out: % Inhibition): -19%
inhibition at 10 µM ([1]; 10 µM, read-out: % Inhibition): -4%
inhibition at 0.5 µM ([2]; 0.5 µM, read-out: % Inhibition): -16%
inhibition at 10 µM ([2]; 10 µM, read-out: % Inhibition): 26%
inhibition at 0.5 µM ([3]; 0.5 µM, read-out: % Inhibition): -17%
inhibition at 10 µM ([3]; 10 µM, read-out: % Inhibition): -9%
inhibition at 0.5 µM ([4]; 0.5 µM, read-out: % Inhibition): -10%
inhibition at 10 µM ([4]; 10 µM, read-out: % Inhibition): 25%
inhibition at 0.5 µM ([5]; 0.5 µM, read-out: % Inhibition): -6%
inhibition at 10 µM ([5]; 10 µM, read-out: % Inhibition): -2%
IC50 [6]: < 1 nM
inhibition at 0.5 µM ([7]; 0.5 µM, read-out: % Inhibition): 3%
inhibition at 10 µM ([7]; 10 µM, read-out: % Inhibition): 18%
inhibition at 0.5 µM ([8]; 0.5 µM, read-out: % Inhibition): 22%
inhibition at 10 µM ([8]; 10 µM, read-out: % Inhibition): 25%
inhibition at 0.5 µM ([9]; 0.5 µM, read-out: % Inhibition): -5%
inhibition at 10 µM ([9]; 10 µM, read-out: % Inhibition): 14%
inhibition at 0.5 µM ([10]; 0.5 µM, read-out: % Inhibition): 15%
inhibition at 10 µM ([10]; 10 µM, read-out: % Inhibition): 75%
inhibition at 0.5 µM ([11]; 0.5 µM, read-out: % Inhibition): 27%
inhibition at 10 µM ([11]; 10 µM, read-out: % Inhibition): 85%
inhibition at 0.5 µM ([12]; 0.5 µM, read-out: % Inhibition): 6%
inhibition at 10 µM ([12]; 10 µM, read-out: % Inhibition): 31%
IC50 [13]: 49 nM
inhibition at 0.5 µM ([14]; 0.5 µM, read-out: % Inhibition): 2%
inhibition at 10 µM ([14]; 10 µM, read-out: % Inhibition): 62%
inhibition at 0.5 µM ([15]; 0.5 µM, read-out: % Inhibition): -4%
inhibition at 10 µM ([15]; 10 µM, read-out: % Inhibition): 13%
inhibition at 0.5 µM ([16]; 0.5 µM, read-out: % Inhibition): -11%
inhibition at 10 µM ([16]; 10 µM, read-out: % Inhibition): 10%
decrease of PRAS40 phosphorylation in tumors ([17]; 30 mg/kg QDx7 oral): 62%
inhibition at 0.5 µM ([18]; 0.5 µM, read-out: % Inhibition): 5%
inhibition at 10 µM ([18]; 10 µM, read-out: % Inhibition): 74%
inhibition at 0.5 µM ([19]; 0.5 µM, read-out: % Inhibition): -6%
inhibition at 10 µM ([19]; 10 µM, read-out: % Inhibition): 23%
inhibition at 0.5 µM ([20]; 0.5 µM, read-out: % Inhibition): 5%
inhibition at 10 µM ([20]; 10 µM, read-out: % Inhibition): 17%
inhibition at 0.5 µM ([21]; 0.5 µM, read-out: % Inhibition): -5%
inhibition at 10 µM ([21]; 10 µM, read-out: % Inhibition): 12%

Cn1ncc(Cl)c1-c1cc(C(=O)N[C@H](CN)Cc2cccc(F)c2)sc1Cl [GSK2110183]
inhibition at 0.5 µM [1]: -5%
inhibition at 10 µM [1]: 3%
inhibition at 0.5 µM [2]: -8%
inhibition at 10 µM [2]: 10%
inhibition at 0.5 µM [3]: -8%
inhibition at 10 µM [3]: -13%
inhibition at 0.5 µM [4]: -2%
inhibition at 10 µM [4]: 19%
inhibition at 0.5 µM [5]: -9%
inhibition at 10 µM [5]: -5%
IC50 [6]: 4 nM
inhibition at 0.5 µM [7]: 21%
inhibition at 10 µM [7]: 25%
inhibition at 0.5 µM [8]: -2%
inhibition at 10 µM [8]: 23%
inhibition at 0.5 µM [9]: 2%
inhibition at 10 µM [9]: 26%
inhibition at 0.5 µM [10]: 5%
inhibition at 10 µM [10]: 61%
inhibition at 0.5 µM [11]: 15%
inhibition at 10 µM [11]: 74%
inhibition at 0.5 µM [12]: 7%
inhibition at 10 µM [12]: 25%
IC50 [13]: 210 nM
inhibition at 0.5 µM [14]: 9%
inhibition at 10 µM [14]: 72%
inhibition at 0.5 µM [15]: -2%
inhibition at 10 µM [15]: 11%
inhibition at 0.5 µM [16]: -2%
inhibition at 10 µM [16]: -1%
decrease of PRAS40 phosphorylation in tumors ([17]; 10 mg/kg QDx7 oral): 8%
decrease of PRAS40 phosphorylation in tumors ([17]; 30 mg/kg QDx7 oral): 37%
decrease of PRAS40 phosphorylation in tumors ([17]; 100 mg/kg QDx7 oral): 61%
inhibition at 0.5 µM [18]: -4%
inhibition at 10 µM [18]: 37%
inhibition at 0.5 µM [19]: 4%
inhibition at 10 µM [19]: 21%
inhibition at 0.5 µM [20]: -1%
inhibition at 10 µM [20]: 18%
inhibition at 0.5 µM [21]: -3%
inhibition at 10 µM [21]: 7%
